Laboratory results: US20260373176A1, “Compounds Targeting KRAS G12D Mutations and Their Uses” (InnoPharmaScreen Inc., priority 2023, published 2026)
“Also recorded” adds a separate entry of the source.

What was measured:
CRBN-KRAS G12D = molecular target: T1, CRBN-KRAS G12D (Homo sapiens, UniProt P01116+Q96SW2, G12D); assay: SPR ternary complex formation assay of CRBN-KRAS G12D-MG (1:1 Langmuir binding model)
T1 construct: His-tag (for the complex); purchased Abcam (KRAS G12D); R&D systems (CUL4A/RBX1/DDB1/CRBN complex) ab268712; E3-650
Method: (§1) CaCo-2 (ATTC), H1975 (CRL-5908) and LS-180 (CCL-187) cells were obtained from ATCC, expanded immediately, and frozen down. Vials were thawed and used within 20 passages. SNU-407, SNU-1033 and SK-LU-1 cells were obtained from Korean Cell Line Bank, expanded immediately, and frozen down. Vials were thawed and used within 20 passages. Caco-2 cells were cultured in MEM (Welgene, LM007-07) supplemented with 10% FBS GenDEPOT; cat. no. F0900-050) and 1% Antibiotic Antimycotic solution (Welgene; cat. No. LS203-01). H1975, SNU-407, SNU-1033 cells were cultured in RPMI (Welgene, LM011-03) supplemented with 10% FBS GenDEPOT; cat. no. F0900-050) and 1% Antibiotic Antimycotic solution (Welgene; cat. No. LS203-01). SK-LU-1 and LS-180 cells were cultured in DMEM (Welgene, LM001-05) supplemented with 10% FBS GenDEPOT; cat. no. F0900-050) and 1% Antibiotic Antimycotic solution (Welgene; cat. No. LS203-01). PBS (Welgene; cat. no. LB004-02) was used to wash cells and 0.25% Trypsin-EDTA (Welgene; cat. no. LS015-01) was used to detach cells for passaging. KRAS Mouse Monoclonal Antibody was purchased from Origene (cat. no. TA801672), anti-3-actin was purchased from AB Frontier (cat. no. LF-MA20055). […]
The injection was performed at a flow rate and for a contact time according to the Korea University Stem cell Lab guidelines. […] The sensorgrams were recorded using the embedded software imSPR-mini v 1.1.0. […]

KRAS WT = molecular target: T2, KRAS WT (Homo sapiens, UniProt P01116+Q96SW2); assay: Western blot analysis of KRAS WT degradation in Caco-2 cells; type: cell-based
T2 construct: molecular glue degradation via endogenous CRBN, western blot
Method: as §1, with “LS203-01).” for “LS203-01). PBS (Welgene; cat. no. LB004-02) was used to wash cells and 0.25% Trypsin-EDTA (Welgene; cat. no. LS015-01) was used to detach cells for passaging. KRAS Mouse Monoclonal Antibody was purchased from Origene (cat. no. TA801672), anti-3-actin was purchased from AB Frontier (cat. no. LF-MA20055).”
2.0×10^5 cells were seeded into 6-well plates (SPL; cat. no. 30006). […] Protein concentration of the supernatant was measured using a BCA reagent. […] Detection of bound antibodies was carried out using ECL reagents (KwikQuant #R1004) and bands were detected by ATTO Luminograph III Lite. The intensity of the KRAS band was quantified using ImageJ software and normalized to the intensity of GAPDH band.

[1] = test system: AsPC-1 pancreatic cancer cells; assay: In vivo tumor growth, AsPC-1 xenograft mice; design: species or system mouse (BALB/c nu/nu nude mice)
Method: We have conducted the in vivo tumor growth assay using AsPC-1 pancreatic cancer cell-implanted xenograft animals by requesting Eins solution (Gwanggyo, Korea).
Experimental procedures that involved animals and their care were conducted in compliance with the Guide for the Care and Use of Laboratory Animals15 and ARRIVE guidelines. Animal experiments were approved by Animal Care and Use Committee of Woojung center for phenogenomics (Hwasung, Korea) and conducted at WoojungBio Inc. (Hwasung, Korea) in accordance with the guidelines. BA LB/C (nu/nu) nude mice of both genders aged 6 weeks and weighing 16-22 g were purchased from Nara biotech Co, Ltd. (Seoul, Korea). The mice were housed in a pathogen-free environment at a temperature of 25 °C and relative air humidity between 45 and 50%. All surgeries were performed in a sterile environment. To establish subcutaneous […] tumors, 1×10^6 AsPC-1 cells/100 μL were subcutaneously injected into the left groin region of BALB/nu nu male mice (7 weeks old; Nara Biotech Inc., Seoul, Korea). Immediately before treatment, IPS-06061 was dissolved in DMSO and then diluted tenfold in normal saline. Tumor-baring mice in vehicle control, IPS-06061 (low), and IPS-06061 (high) groups were injected intravenously with vehicle (1:10 DMSO to saline, v/v), 30 mg/kg IPS-06061 solution, or 80 mg/kg IPS-06061 solution, respectively, twice a week for 28 days (n=10 mice per major group) (FIG. 11). Tumor growth rate was recorded on day 7, 14, 21, and 28 by measuring the major and minor axes with a digital caliper. Measurements were transformed into tumor volumes using the formula tumor volume (mm^3)=major axis×minor axis^2×0.5. Tumor, liver, and kidneys were collected from major groups on day 28 within 3 h of the last injection and weighed. The tumors were subsequently frozen in liquid nitrogen and stored at −80 °C until homogenization for western blotting.
To confirm the anti-tumor effect of IPS-06061, we employed a xenograft mouse model implanting AsPC-1 pancreatic cancer cells. After the tumor volume had grown to approximately 100 mm^3, IPS-06061 was administered […] twice a week for 28 days. […] Toxicity was assessed by measuring body weight, food intake, complete blood cell count, and biochemical blood chemistry.

KRAS G12D [2] = assay: KRAS G12D degradation in AsPC-1 xenograft mice; type: in vivo, mouse (BALB/c nu/nu nude mice); settings: 80 mpk BiW, oral; at 28 days after treatment
[3] = Toxicity in AsPC-1 xenograft mice (body weight, food intake, blood count, blood chemistry); type: in vivo, mouse (BALB/c nu/nu nude mice)
Method: Experimental procedures that involved animals and their care were conducted in compliance with the Guide for the Care and Use of Laboratory Animals15 and ARRIVE guidelines. Animal experiments were approved by Animal Care and Use Committee of Woojung center for phenogenomics (Hwasung, Korea) and conducted at WoojungBio Inc. (Hwasung, Korea) in accordance with the guidelines. BA LB/C (nu/nu) nude mice of both genders aged 6 weeks and weighing 16-22 g were purchased from Nara biotech Co, Ltd. (Seoul, Korea). The mice were housed in a pathogen-free environment at a temperature of 25 °C and relative air humidity between 45 and 50%. All surgeries were performed in a sterile environment. To establish subcutaneous […] tumors, 1×10^6 AsPC-1 cells/100 μL were subcutaneously injected into the left groin region of BALB/nu nu male mice (7 weeks old; Nara Biotech Inc., Seoul, Korea). Immediately before treatment, IPS-06061 was dissolved in DMSO and then diluted tenfold in normal saline. […] Tumor growth rate was recorded on day 7, 14, 21, and 28 by measuring the major and minor axes with a digital caliper. […]
To confirm the anti-tumor effect of IPS-06061, we employed a xenograft mouse model implanting AsPC-1 pancreatic cancer cells. […] Toxicity was assessed by measuring body weight, food intake, complete blood cell count, and biochemical blood chemistry.

KRAS G12D [4] = molecular target: T3, KRAS G12D (Homo sapiens, UniProt P01116+Q96SW2, G12D); assay: Western blot analysis of KRAS G12D degradation in cells; type: cell-based; design: degradation by molecular glue via endogenous CRBN, western blot
Method: 2.0×10^5 cells were seeded into 6-well plates (SPL; cat. no. 30006). The next day, media was removed, and cells were treated with 0, 1, 5, 10, 50, 100 μM KRAS-MG in serum free media. For 24 h, 48 h, and 72 h. Cells were lysed using a RIPA buffer and clarified at 21,000×g for 15 min at 4 °C. Protein concentration of the supernatant was measured using a BCA reagent. (Thermofisher; cat. no. 23225) incubated at 37 °C for 30 mins. For each sample, equal amounts of protein were denatured and fractionated by Novex Wedge Well 4-20% Tris-Glycine Mini Gels (Invitrogen cat. no. XP04205BOX), and then transferred onto a Immobilon-PVDF Membrane membranes (Merck, cat. no. IPVH00010) at 80 V for 1 h at 4 °C. Membranes were blocked by placing them in a 5% BSA in Tris-buffered saline with Tween-20 (TBST; 20 mM Tris, 150 mM NaCl, 0.1% Tween-20) for 1 h. Membranes were then incubated overnight at 4 °C with primary antibodies against KRAS (1:1000, invitrogen: #703345), GAPDH (1:2000, Cell signaling #2118). After three washes with TBST, membranes were incubated with the appropriate HRP-conjugated secondary antibodies (1:1000, KwikQuant #R1006) for 1 hour RT. After three washing. Detection of bound antibodies was carried out using ECL reagents (KwikQuant #R1004) and bands were detected by ATTO Luminograph III Lite. The intensity of the KRAS band was quantified using ImageJ software and normalized to the intensity of GAPDH band.

KRAS G12D [5] = molecular target: T3, KRAS G12D; assay: IPS-Chip PPIExplorer solid-phase cell-free ubiquitination of KRAS G12D using CRBN; type: biochemical; design: His-tagged CUL4A/RBX1/DDB1/CRBN E3; UBE1 (E1) and UbcH5a/UBE2D1 (E2) as helper enzymes; settings: in the presence of CRBN, E1, E2, ubiquitin and ATP
Method: as §1, with “passaging.” for “passaging. KRAS Mouse Monoclonal Antibody was purchased from Origene (cat. no. TA801672), anti-3-actin was purchased from AB Frontier (cat. no. LF-MA20055).”
The 0.2 mg/ml 6× His tag monoclonal antibody was diluted in 30% glycerol in 1×PBS, pH 7.4, was spotted onto the IPS-Chip for 16 h at 4 °C. […] To detect polyubiquitination signals, the chip was scanned using a GenePix Pro 6.0 (Axon Instruments, CA, USA), and the data analyzed with an Origin 6.1 (Originlab, MA, USA).

KRAS = settings: PROTAC recruiting CRBN; cited from earlier work

Compound: CCOC(=O)[C@H](CCc1ccccc1)N[C@@H](C)C(=O)c1ccccc1 [IPS-06061, ethyl (2S)-2-((1-oxo-1-phenylpropan-2-yl)amino)-4-phenylbutanoate]
- ternary complex formation / binding to KRAS G12D (CRBN-KRAS G12D; CRBN + KRAS G12D): binds specifically to KRAS G12D, forming a ternary complex
- selectivity for KRAS G12D over KRAS WT (CRBN-KRAS G12D; KRAS G12D vs KRAS WT): High selective for KRAS G12D
- effect on degradation of KRAS WT (KRAS WT): no effect on the degradation of KRAS WT; also recorded: without affecting KRAS Wild Type
- TGI ([1]; 80 mpk BiW, oral, AsPC-1 xenograft mice): ~ 100%
- anti-cancer activity ([1]; AsPC-1 xenograft mice): strong anti-cancer activity
- mean tumor growth vs vehicle ([1]; high dose 80 mpk, oral, twice a week for 28 days): remarkably reduced
- tumor weight ([1]; oral, twice a week for 28 days): significantly reduced tumor weight
- Maximum degradation (KRAS G12D [2]): > 75%
- body weight effect ([3]; AsPC-1 xenograft mice, twice a week, 28 days): No body weight effect
- decreases in weight and food intake ([3]; oral, twice a week for 28 days, vs vehicle group): such differences were not noted
- Dmax (KRAS G12D [4]; ASPC1, KRAS G12D degradation, AsPC-1 cells): > 90%
- DC50 (KRAS G12D [4]; KRAS G12D degradation, AsPC-1 cells): < 500 nM
- degradation of KRAS G12D (KRAS G12D [4]; western blot, AsPC-1 pancreatic cancer cells): Time-dependent degradation of KRAS G12D; also recorded: degrades KRAS G12D mutant
- ubiquitination of KRAS G12D (KRAS G12D [5]): promoted the ubiquitination of KRAS G12D in a dose-dependent manner

Compound: C=C(F)C(=O)N1CCN(c2nc(OC[C@@H]3CCCN3CCCOCCC(=O)N[C@H](C(=O)N3C[C@H](O)C[C@H]3C(=O)NCc3ccc(-c4scnc4C)cc3)C(C)(C)C)nc3c2CCN(c2cccc4cccc(Cl)c24)C3)C[C@@H]1CC#N [LC2]
- poly-ubiquitination and degradation of KRAS (KRAS): poly-ubiquitination of KRAS, thus proteosome-mediated degradation of the protein
